Results reported in US12258342B2, “Class of DNA gyrase and/or topoisomerase IV inhibitors with activity against gram-positive and gram-negative bacteria” (Univerza v Ljubljani, priority 2018, dated 2025).
Values after ≈ are worked out from the molar mass of the structure shown.

Columns and labels:
[1] = target: E. coli DNA gyrase (Escherichia coli (strain K12), UniProt P0AES6); experiment: DNA gyrase inhibition assay (Inspiralis, streptavidin-coated plates); type: biochemical
Description: (§1) Inhibitory activities for compounds of the present invention were determined on E. coli and S. aureus DNA gyrase and topoisomerase IV in an assay from Inspiralis on streptavidin-coated 96-well microtiter plates from Thermo scientific Pierce. […] After washing off the unbound oligonucleotide, the enzyme test was performed. […] Reaction solutions were incubated at 37° C. for 30 min. After that, the TF buffer (50 mM NaOAc with pH 5.0, 50 mM NaCl and 50 mM MgCl2) was added to terminate the enzymatic reaction. After additional incubation for 30 min at rt, during which biotin-oligonucleotide-plasmid triplex was formed, the unbound plasmid was washed off using TF buffer and SybrGOLD in T10 buffer (10 mM Tris HCl with pH 8.0 and 1 mM EDTA) was added. […] GraphPad Prism 6.0 software was used to calculate the IC50 values. The result is given as the average value of three independent measurements. […] Chemoth.

[2] = target: S. aureus DNA gyrase (Staphylococcus aureus, UniProt P0A0K8); experiment: biochemical; conditions: read-out: IC50 DNA gyrase from S. aureus
Description: as §1

[3] = target: E. coli topoisomerase IV (Escherichia coli (strain K12), UniProt P20083); experiment: Topoisomerase IV inhibition assay (Inspiralis, streptavidin-coated plates); type: biochemical
Sequence of E. coli topoisomerase IV (P20083 whole entry, looked up): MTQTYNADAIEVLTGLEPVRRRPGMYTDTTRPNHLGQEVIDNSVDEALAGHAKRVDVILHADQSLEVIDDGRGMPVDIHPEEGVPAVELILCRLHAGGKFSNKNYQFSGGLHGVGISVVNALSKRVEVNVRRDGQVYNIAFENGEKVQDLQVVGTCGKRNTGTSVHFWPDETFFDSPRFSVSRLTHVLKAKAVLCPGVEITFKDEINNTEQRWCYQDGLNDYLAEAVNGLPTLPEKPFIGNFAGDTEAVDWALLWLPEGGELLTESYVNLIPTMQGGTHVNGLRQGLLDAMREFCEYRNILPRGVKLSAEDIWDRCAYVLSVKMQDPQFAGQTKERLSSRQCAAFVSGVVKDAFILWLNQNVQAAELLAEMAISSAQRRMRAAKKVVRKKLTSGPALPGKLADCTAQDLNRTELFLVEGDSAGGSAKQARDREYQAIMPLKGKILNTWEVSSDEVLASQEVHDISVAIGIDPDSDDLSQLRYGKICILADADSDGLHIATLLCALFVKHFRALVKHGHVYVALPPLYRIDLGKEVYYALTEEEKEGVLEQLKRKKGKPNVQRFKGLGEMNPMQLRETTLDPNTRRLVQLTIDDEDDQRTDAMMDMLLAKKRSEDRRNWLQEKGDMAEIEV
Sequence of E. coli topoisomerase IV (P0AFI2 whole entry partner, looked up): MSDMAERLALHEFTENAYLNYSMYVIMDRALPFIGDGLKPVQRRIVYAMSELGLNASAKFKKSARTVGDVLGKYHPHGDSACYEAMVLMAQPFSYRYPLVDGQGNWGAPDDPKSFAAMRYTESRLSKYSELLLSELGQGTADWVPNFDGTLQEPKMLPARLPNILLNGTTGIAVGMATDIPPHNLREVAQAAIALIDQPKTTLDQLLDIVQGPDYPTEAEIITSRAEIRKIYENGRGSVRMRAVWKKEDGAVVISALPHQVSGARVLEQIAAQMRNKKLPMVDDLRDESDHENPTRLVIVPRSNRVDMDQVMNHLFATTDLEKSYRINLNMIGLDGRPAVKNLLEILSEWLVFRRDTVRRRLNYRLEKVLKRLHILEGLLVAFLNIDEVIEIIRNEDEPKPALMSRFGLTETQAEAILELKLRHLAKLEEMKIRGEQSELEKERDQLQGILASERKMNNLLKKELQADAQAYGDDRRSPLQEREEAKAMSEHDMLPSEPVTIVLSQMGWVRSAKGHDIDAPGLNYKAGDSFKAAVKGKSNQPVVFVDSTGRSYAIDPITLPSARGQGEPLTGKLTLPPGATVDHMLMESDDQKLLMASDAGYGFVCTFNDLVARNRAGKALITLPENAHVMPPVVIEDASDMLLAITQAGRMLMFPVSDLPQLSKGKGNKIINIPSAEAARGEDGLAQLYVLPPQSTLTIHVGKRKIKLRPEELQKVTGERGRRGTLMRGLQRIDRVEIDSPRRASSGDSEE
Description: Inhibitory activities for compounds of the present invention were determined on E. coli and S. aureus DNA gyrase and topoisomerase IV in an assay from Inspiralis on streptavidin-coated 96-well microtiter plates from Thermo scientific Pierce. […] After washing off the unbound oligonucleotide, the enzyme test was performed. […] Reaction solutions were incubated at 37° C. for 30 min. After that, the TF buffer (50 mM NaOAc with pH 5.0, 50 mM NaCl and 50 mM MgCl2) was added to terminate the enzymatic reaction. After additional incubation for 30 min at rt, during which biotin-oligonucleotide-plasmid triplex was formed, the unbound plasmid was washed off using TF buffer and SybrGOLD in T10 buffer (10 mM Tris HCl with pH 8.0 and 1 mM EDTA) was added. […] Initial screening was done at 100 or 10 nM concentration of inhibitors against E. coli DNA gyrase or 1 μM or 100 nM concentration against S. aureus DNA gyrase and E. coli and S. aureus topo IV. […] GraphPad Prism 6.0 software was used to calculate the IC50 values. The result is given as the average value of three independent measurements. […] Chemoth.

[4] = target: S. aureus topoisomerase IV (Staphylococcus aureus, UniProt P0C1S7); experiment: as above; type: biochemical; conditions: read-out: IC50 DNA topoisomerase IV from S. aureus
Description: Inhibitory activities for compounds of the present invention were determined on E. coli and S. aureus DNA gyrase and topoisomerase IV in an assay from Inspiralis on streptavidin-coated 96-well microtiter plates from Thermo scientific Pierce. First, the plates were rehydrated with buffer (20 mM Tris-HCl with pH 7.6, 0.01% w/v BSA, 0.05% v/v Tween 20, 137 mM NaCl) and the biotinylated oligonucleotide was then immobilized. After washing off the unbound oligonucleotide, the enzyme test was performed. […] Reaction solutions were incubated at 37° C. for 30 min. After that, the TF buffer (50 mM NaOAc with pH 5.0, 50 mM NaCl and 50 mM MgCl2) was added to terminate the enzymatic reaction. After additional incubation for 30 min at rt, during which biotin-oligonucleotide-plasmid triplex was formed, the unbound plasmid was washed off using TF buffer and SybrGOLD in T10 buffer (10 mM Tris HCl with pH 8.0 and 1 mM EDTA) was added. The fluorescence was measured with a microplate reader (BioTek Synergy H4, excitation: 485 nm, emission: 535 nm). […]. GraphPad Prism 6.0 software was used to calculate the IC50 values. The result is given as the average value of three independent measurements. […]. Chemoth. 66, 2061-2096 (2011))) for E. coli and S. aureus topoisomerase IV) was used.

[5] = test system: S. aureus ATCC 29213; experiment: Microbroth dilution MIC (CLSI); conditions: Staphylococcus aureus, ATCC29213, read-out: MIC (μg/mL) S. aureus ATCC 29213
[6] = test system: E. faecium ATCC 35667; experiment: Microbroth dilution MIC (CLSI); conditions: Enterococcus faecium, ATCC35667, read-out: MIC (μg/mL) E. faecium ATCC 35667
[7] = test system: E. faecalis ATCC 29212; experiment: Microbroth dilution MIC (CLSI); conditions: Enterococcus faecalis, ATCC29212, read-out: MIC (μg/mL) E. faecalis ATCC 29212
[8] = test system: E. coli ATCC 25922; experiment: Microbroth dilution MIC (CLSI); conditions: Escherichia coli, ATCC25922, read-out: MIC (μg/mL) E. coli ATCC 25922

| SMILES | IC50 [1] | IC50 [2] | IC50 [3] | IC50 [4] | MIC [5] | MIC [6] | MIC [7] | MIC [8] |
| --- | --- | --- | --- | --- | --- | --- | --- | --- |
| Cc1[nH]c(C(=O)Nc2nc3c(OCCN4CCOCC4)cc(C(=O)O)cc3s2)c(Cl)c1Cl.Cl [Example 10, 4-(2-((6-carboxy-2-(3,4-dichloro-5-methyl-1H-pyrrole-2-carboxamido)benzo[d]thiazol-4-yl)oxy)ethyl)morpholin-4-ium chloride] | < 5 nM | < 20 nM | < 400 nM | < 400 nM | > 64 µg/mL | 40.2 µg/mL | 8 µg/mL | > 64 µg/mL |
| Cc1[nH]c(C(=O)Nc2nc3cc(O)c(C(=O)O)cc3s2)c(Cl)c1Cl [Example 13, 2-(3,4-dichloro-5-methyl-1H-pyrrole-2-carboxamido)-5-hydroxybenzo[d]thiazole-6-carboxylic acid] | < 5 nM | – | – | – | 16 µg/mL (≈ 41.4 µM) | 1.21 µg/mL (≈ 3.13 µM) | 1 µg/mL (≈ 2.59 µM) | > 64 µg/mL |
| Cc1[nH]c(C(=O)Nc2nc3ccc(C(=O)O)c(Cl)c3s2)c(Cl)c1Cl [Example 14, 7-chloro-2-(3,4-dichloro-5-methyl-1H-pyrrole-2-carboxamido)benzo[d]thiazole-6-carboxylic acid] | 310 ± 30 nM | – | – | – | > 64 µg/mL | > 64 µg/mL | > 64 µg/mL | > 64 µg/mL |
| O=C(O)c1ccc2nc(N(Cc3ccccc3)C(=O)c3cc(Br)c(Br)[nH]3)sc2c1 [Example 15, 2-(N-benzyl-4,5-dibromo-1H-pyrrole-2-carboxamido)benzo[d]thiazole-6-carboxylic acid] | 5.1 ± 1.3 nM | – | – | – | 0.42 µg/mL (≈ 0.785 µM) | 0.83 µg/mL (≈ 1.55 µM) | 0.21 µg/mL (≈ 0.392 µM) | > 64 µg/mL |
| Cc1[nH]c(C(=O)N(Cc2ccccc2)c2nc3ccc(C(=O)O)cc3s2)c(Cl)c1Cl [Example 16, 2-(N-benzyl-3,4-dichloro-5-methyl-1H-pyrrole-2-carboxamido)benzo[d]thiazole-6-carboxylic acid] | < 5 nM | – | – | – | ≤ 0.0312 µg/mL | 0.36 µg/mL (≈ 0.782 µM) | ≤ 0.0312 µg/mL | 64 µg/mL (≈ 139 µM) |
| Cc1[nH]c(C(=O)Nc2nc3ccc(-c4nnn[nH]4)cc3s2)c(Cl)c1Cl [Example 17, N-(6-(1H-tetrazol-5-yl)benzo[d]thiazol-2-yl)-3,4-dichloro-5-methyl-1H-pyrrole-2-carboxamide] | < 5 nM | – | – | – | 16 µg/mL (≈ 40.6 µM) | 1.23 µg/mL (≈ 3.12 µM) | 1 µg/mL (≈ 2.54 µM) | > 64 µg/mL |
| Cc1[nH]c(C(=O)Nc2nc3ccc(C(N)=O)cc3s2)c(Cl)c1Cl [Example 18, 2-(3,4-dichloro-5-methyl-1H-pyrrole-2-carboxamido)benzo[d]thiazole-6-carboxamide] | 11 ± 2 nM | – | – | – | 1.16 µg/mL (≈ 3.14 µM) | > 64 µg/mL | > 64 µg/mL | > 64 µg/mL |
| O=C(NO)c1ccc2nc(NC(=O)c3cc(Br)c(Br)[nH]3)sc2c1 [Example 19, 2-(4,5-dibromo-1H-pyrrole-2-carboxamido)-N-hydroxybenzo[d]thiazole-6-carboxamide] | 89 ± 20 nM | – | – | – | > 64 µg/mL | > 64 µg/mL | 64 µg/mL (≈ 139 µM) | > 64 µg/mL |
| Cc1[nH]c(C(=O)Nc2nc3ccc(C(=O)NO)cc3s2)c(Cl)c1Cl [Example 20, 2-(3,4-dichloro-5-methyl-1H-pyrrole-2-carboxamido)-N-hydroxybenzo[d]thiazole-6-carboxamide] | 280 ± 10 nM | – | – | – | 64 µg/mL (≈ 166 µM) | 38.5 µg/mL (≈ 100 µM) | 0.5 µg/mL (≈ 1.3 µM) | > 64 µg/mL |
| O=C(O)CCNC(=O)c1ccc2nc(NC(=O)c3cc(Br)c(Br)[nH]3)sc2c1 [Example 21, 3-(2-(4,5-dibromo-1H-pyrrole-2-carboxamido)benzo[d]thiazole-6-carboxamido)propanoic acid] | 12 ± 5 nM | – | – | – | > 64 µg/mL | > 64 µg/mL | > 64 µg/mL | > 64 µg/mL |
| Cc1[nH]c(C(=O)Nc2nc3ccc(C(=O)NCCC(=O)O)cc3s2)c(Cl)c1Cl [Example 22, 3-(2-(3,4-dichloro-5-methyl-1H-pyrrole-2-carboxamido)benzo[d]thiazole-6-carboxamido)propanoic acid] | 7 ± 0.9 nM | – | – | – | 32 µg/mL (≈ 72.5 µM) | 5.52 µg/mL (≈ 12.5 µM) | 2 µg/mL (≈ 4.53 µM) | > 64 µg/mL |
| Cc1[nH]c(C(=O)Nc2nc3ccc(C(=O)NCC(=O)O)cc3s2)c(Cl)c1Cl [Example 23, (2-(3,4-dichloro-5-methyl-1H-pyrrole-2-carboxamido)benzo[d]thiazole-6-carbonyl)glycine] | 7.1 ± 3.2 nM | < 20 nM | < 400 nM | < 400 nM | 64 µg/mL (≈ 150 µM) | – | 16 µg/mL (≈ 37.4 µM) | > 64 µg/mL |
| Cc1[nH]c(C(=O)Nc2nc3c(OCc4cccc(C(=O)O)c4)cc(C(=O)O)cc3s2)c(Cl)c1Cl [Example 24, 4-((3-carboxybenzyl)oxy)-2-(3,4-dichloro-5-methyl-1H-pyrrole-2-carboxamido)benzo[d]thiazole-6-carboxylic acid] | < 5 nM | < 20 nM | < 400 nM | < 400 nM | > 64 µg/mL | – | 1.5 µg/mL (≈ 2.88 µM) | > 64 µg/mL |
| Cc1[nH]c(C(=O)Nc2nc3c(OCc4cccc(F)c4)cc(C(=O)O)cc3s2)c(Cl)c1Cl [Example 30, 2-(3,4-dichloro-5-methyl-1H-pyrrole-2-carboxamido)-4-((3-fluorobenzyl)oxy)benzo[d]thiazole-6-carboxylic acid] | – | < 20 nM | – | < 400 nM | 0.0625 µg/mL (≈ 0.126 µM) | – | 0.001 µg/mL (≈ 0.00202 µM) | > 64 µg/mL |
| Cc1[nH]c(C(=O)Nc2nc3c(OCc4ccsc4)cc(C(=O)O)cc3s2)c(Cl)c1Cl [Example 31, 2-(3,4-dichloro-5-methyl-1H-pyrrole-2-carboxamido)-4-(thiophen-3-ylmethoxy)benzo[d]thiazole-6-carboxylic acid] | < 5 nM | < 20 nM | < 400 nM | < 400 nM | 0.25 µg/mL (≈ 0.518 µM) | – | 0.0156 µg/mL (≈ 0.0323 µM) | 4 µg/mL (≈ 8.29 µM) |
| Cc1[nH]c(C(=O)Nc2nc3c(OCc4cccs4)cc(C(=O)O)cc3s2)c(Cl)c1Cl [Example 32, 2-(3,4-dichloro-5-methyl-1H-pyrrole-2-carboxamido)-4-(thiophen-2-ylmethoxy)benzo[d]thiazole-6-carboxylic acid] | < 5 nM | < 20 nM | < 400 nM | < 400 nM | 0.065 µg/mL (≈ 0.135 µM) | – | 0.0163 µg/mL (≈ 0.0337 µM) | 8 µg/mL (≈ 16.6 µM) |
| Cc1[nH]c(C(=O)Nc2nc3c(N4CCCC4)cc(C(=O)O)cc3s2)c(Cl)c1Cl [Example 37, 2-(3,4-dichloro-5-methyl-1H-pyrrole-2-carboxamido)-4-(pyrrolidin-1-yl)benzo[d]thiazole-6-carboxylic acid] | < 5 nM | < 20 nM | < 400 nM | < 400 nM | 0.25 µg/mL (≈ 0.569 µM) | – | 0.125 µg/mL (≈ 0.285 µM) | 16 µg/mL (≈ 36.4 µM) |
| Cc1[nH]c(C(=O)Nc2nc3c(-c4ccccc4)cc(C(=O)O)cc3s2)c(Cl)c1Cl [Example 44, 2-(3,4-dichloro-5-methyl-1H-pyrrole-2-carboxamido)-4-phenylbenzo[d]thiazole-6-carboxylic acid] | < 5 nM | < 20 nM | < 400 nM | < 400 nM | 0.0312 µg/mL (≈ 0.07 µM) | – | 0.023 µg/mL (≈ 0.0515 µM) | > 64 µg/mL |
